Patent US20150105252A1, “SUBSTITUTED PYRAZOLES AS HERBICIDES” (E I DU PONT DE NEMOURS AND COMPANY, priority 2013, published 2015)

Legend:
blackgrass = experiment: Test D preemergence; format: in vivo, Alopecurus myosuroides; settings: scale 0 to 100
Procedure, shortened: (§1)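 Visual injury scored 0–100 (0 none, 100 complete control) against controls 14–21 days after treatment in a controlled growth environment. Chemicals were formulated in a non-phytotoxic solvent mixture containing surfactant, applied to silt loam soil preemergence or to 1- to 4-leaf plants postemergence.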

wheat, winter = experiment: Test D preemergence; format: in vivo, Triticum aestivum; settings: scale 0 to 100
Procedure, shortened: as §1

wheat, spring = experiment: Test D preemergence; format: in vivo, Triticum aestivum; settings: scale 0 to 100
Procedure, shortened: as §1

field poppy = experiment: Test D postemergence; format: in vivo, Papaver rhoeas; settings: scale 0 to 100
Procedure, shortened: as §1

chickweed = experiment: Test D postemergence; format: in vivo, Stellaria media; settings: scale 0 to 100
Procedure, shortened: as §1

wild poinsettia = experiment: Test F preemergence; format: in vivo, Euphorbia heterophylla
Procedure, shortened: (§2)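 Greenhouse study; evaluation window 14–21 days post-treatment. Seedlings sprayed postemergence measured 2–18 cm, while preemergence treatments went on silt loam soil. Non-phytotoxic solvent mixture with surfactant served as vehicle; response assessed by eye, 0–100 scale.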

buckwheat, wild = experiment: Test D preemergence; format: in vivo, Polygonum convolvulus; settings: scale 0 to 100
Procedure, shortened: as §1

fall panicum = experiment: Test F preemergence; format: in vivo, Panicum dichotomiflorum
Procedure, shortened: as §2

ryegrass, Italian = experiment: Test D postemergence; format: in vivo, Lolium multiflorum; settings: scale 0 to 100
Procedure, shortened: as §1

lambsquarters = experiment: Test D preemergence; format: in vivo, Chenopodium album; settings: scale 0 to 100
Procedure, shortened: as §1

pigweed, palmer = experiment: Test F preemergence; format: in vivo, Amaranthus palmeri
Procedure, shortened: as §2

pigweed = experiment: Test D postemergence; format: in vivo, Amaranthus retroflexus; settings: scale 0 to 100
Procedure, shortened: as §1

deadnettle = experiment: Test D postemergence; format: in vivo, Lamium amplexicaule; settings: scale 0 to 100
Procedure, shortened: as §1

velvetleaf = experiment: Test F preemergence; format: in vivo, Abutilon theophrasti
Procedure, shortened: as §2

[1] = Preemergence, 31 g ai/ha, scale 0 to 100
[2] = Preemergence, 62 g ai/ha, scale 0 to 100
[3] = Preemergence, 125 g ai/ha, scale 0 to 100
[4] = preemergence, 8 g ai/ha, scale 0 to 100, 100 is complete control
[5] = preemergence, 16 g ai/ha, scale 0 to 100, 100 is complete control

CCCc1cc(C(=O)NCC(F)(F)F)nn1Cc1ccnc(C(F)(F)F)c1 [Compound 105]
80: Plant response rating, Blackgrass (blackgrass; 62 g ai/ha) | Field Poppy plant response rating (field poppy; Postemergence, 125 g ai/ha) | Field Poppy plant response rating (field poppy; postemergence, 62 g ai/ha) | Chickweed plant response rating (chickweed; Postemergence, 250 g ai/ha) | Plant response rating, Fall Panicum (fall panicum; [5]) | Plant response rating, Pigweed, Palmer (pigweed, palmer; [3]) | Pigweed plant response rating (pigweed; Postemergence, 125 g ai/ha)
15: Plant response rating, Wheat, Winter (wheat, winter; 31 g ai/ha) | Deadnettle plant response rating (deadnettle; Postemergence, 31 g ai/ha)
40: Plant response rating, Wheat, Spring (wheat, spring; 62 g ai/ha) | Ryegrass, Italian plant response rating (ryegrass, Italian; Postemergence, 125 g ai/ha) | Plant response rating, Velvetleaf (velvetleaf; [3])
10: Plant response rating, Wheat, Spring (wheat, spring; 31 g ai/ha)
100: Plant response rating, Blackgrass (blackgrass; 125 g ai/ha) | Plant response rating, Blackgrass (blackgrass; 250 g ai/ha) | Plant response rating, Wheat, Spring (wheat, spring; 250 g ai/ha) | Plant response rating, Buckwheat, Wild (buckwheat, wild; 250 g ai/ha) | Plant response rating, Fall Panicum (fall panicum; [1]) | Plant response rating, Fall Panicum (fall panicum; [2]) | Plant response rating, Fall Panicum (fall panicum; [3]) | Plant response rating, Lambsquarters (lambsquarters; 31 g ai/ha) | Plant response rating, Lambsquarters (lambsquarters; 62 g ai/ha) | Plant response rating, Lambsquarters (lambsquarters; 125 g ai/ha) | Plant response rating, Lambsquarters (lambsquarters; 250 g ai/ha)
25: Plant response rating, Blackgrass (blackgrass; 31 g ai/ha)
65: Field Poppy plant response rating (field poppy; Postemergence, 31 g ai/ha) | Ryegrass, Italian plant response rating (ryegrass, Italian; Postemergence, 250 g ai/ha)
20: Chickweed plant response rating (chickweed; Postemergence, 31 g ai/ha) | Deadnettle plant response rating (deadnettle; postemergence, 62 g ai/ha) | Plant response rating, Velvetleaf (velvetleaf; [2])
90: Plant response rating, Wheat, Winter (wheat, winter; 250 g ai/ha) | Plant response rating, Buckwheat, Wild (buckwheat, wild; 62 g ai/ha)
75: Plant response rating, Wheat, Winter (wheat, winter; 125 g ai/ha) | Plant response rating, Wheat, Spring (wheat, spring; 125 g ai/ha) | Plant response rating, Fall Panicum (fall panicum; [4]) | Pigweed plant response rating (pigweed; postemergence, 62 g ai/ha)
60: Plant response rating, Wild Poinsettia (wild poinsettia; [2]) | Deadnettle plant response rating (deadnettle; Postemergence, 250 g ai/ha)
35: Plant response rating, Wheat, Winter (wheat, winter; 62 g ai/ha)
95: Field Poppy plant response rating (field poppy; Postemergence, 250 g ai/ha) | Plant response rating, Wild Poinsettia (wild poinsettia; [3]) | Plant response rating, Buckwheat, Wild (buckwheat, wild; 125 g ai/ha)
50: Plant response rating, Pigweed, Palmer (pigweed, palmer; [2])
55: Chickweed plant response rating (chickweed; postemergence, 62 g ai/ha) | Deadnettle plant response rating (deadnettle; Postemergence, 125 g ai/ha)
70: Chickweed plant response rating (chickweed; Postemergence, 125 g ai/ha)
5: Plant response rating, Wild Poinsettia (wild poinsettia; [1]) | Ryegrass, Italian plant response rating (ryegrass, Italian; Postemergence, 31 g ai/ha) | Ryegrass, Italian plant response rating (ryegrass, Italian; postemergence, 62 g ai/ha)
0: Plant response rating, Wild Poinsettia (wild poinsettia; [4]) | Plant response rating, Wild Poinsettia (wild poinsettia; [5]) | Plant response rating, Pigweed, Palmer (pigweed, palmer; [4]) | Plant response rating, Pigweed, Palmer (pigweed, palmer; [5]) | Plant response rating, Velvetleaf (velvetleaf; [1]) | Plant response rating, Velvetleaf (velvetleaf; [4]) | Plant response rating, Velvetleaf (velvetleaf; [5])
85: Plant response rating, Buckwheat, Wild (buckwheat, wild; 31 g ai/ha) | Pigweed plant response rating (pigweed; Postemergence, 31 g ai/ha) | Pigweed plant response rating (pigweed; Postemergence, 250 g ai/ha)

CCOc1cc(C(=O)NC(C)C)nn1Cc1ccnc(C(F)(F)F)c1 [Compound 188]
60: Field Poppy plant response rating (field poppy; Postemergence, 31 g ai/ha) | Field Poppy plant response rating (field poppy; postemergence, 62 g ai/ha) | Pigweed plant response rating (pigweed; Postemergence, 125 g ai/ha)
80: Pigweed plant response rating (pigweed; Postemergence, 250 g ai/ha)
50: Plant response rating, Pigweed, Palmer (pigweed, palmer; [3])
55: Plant response rating, Blackgrass (blackgrass; 31 g ai/ha) | Deadnettle plant response rating (deadnettle; Postemergence, 250 g ai/ha)
10: Plant response rating, Wild Poinsettia (wild poinsettia; [4])
75: Plant response rating, Blackgrass (blackgrass; 62 g ai/ha) | Field Poppy plant response rating (field poppy; Postemergence, 125 g ai/ha) | Chickweed plant response rating (chickweed; Postemergence, 125 g ai/ha) | Plant response rating, Fall Panicum (fall panicum; [4])
65: Plant response rating, Wheat, Winter (wheat, winter; 62 g ai/ha) | Chickweed plant response rating (chickweed; Postemergence, 31 g ai/ha) | Chickweed plant response rating (chickweed; postemergence, 62 g ai/ha) | Ryegrass, Italian plant response rating (ryegrass, Italian; Postemergence, 250 g ai/ha)
20: Ryegrass, Italian plant response rating (ryegrass, Italian; Postemergence, 31 g ai/ha) | Ryegrass, Italian plant response rating (ryegrass, Italian; postemergence, 62 g ai/ha) | Plant response rating, Velvetleaf (velvetleaf; preemergence, scale 0 to 100, 100 is complete control)
35: Deadnettle plant response rating (deadnettle; Postemergence, 31 g ai/ha) | Deadnettle plant response rating (deadnettle; postemergence, 62 g ai/ha)
45: Deadnettle plant response rating (deadnettle; Postemergence, 125 g ai/ha)
100: Plant response rating, Blackgrass (blackgrass; 125 g ai/ha) | Plant response rating, Blackgrass (blackgrass; 250 g ai/ha) | Plant response rating, Wheat, Winter (wheat, winter; 250 g ai/ha) | Plant response rating, Wheat, Spring (wheat, spring; 125 g ai/ha) | Plant response rating, Wheat, Spring (wheat, spring; 250 g ai/ha) | Plant response rating, Wild Poinsettia (wild poinsettia; [2]) | Plant response rating, Wild Poinsettia (wild poinsettia; [3]) | Plant response rating, Buckwheat, Wild (buckwheat, wild; 31 g ai/ha) | Plant response rating, Buckwheat, Wild (buckwheat, wild; 62 g ai/ha) | Plant response rating, Buckwheat, Wild (buckwheat, wild; 125 g ai/ha) | Plant response rating, Buckwheat, Wild (buckwheat, wild; 250 g ai/ha) | Plant response rating, Fall Panicum (fall panicum; Preemergence, 16 g ai/ha, scale 0 to 100) | Plant response rating, Fall Panicum (fall panicum; [2]) | Plant response rating, Fall Panicum (fall panicum; [3]) | Plant response rating, Lambsquarters (lambsquarters; 62 g ai/ha) | Plant response rating, Lambsquarters (lambsquarters; 125 g ai/ha) | Plant response rating, Lambsquarters (lambsquarters; 250 g ai/ha) | Plant response rating, Velvetleaf (velvetleaf; [2]) | Plant response rating, Velvetleaf (velvetleaf; [3])
70: Plant response rating, Wheat, Spring (wheat, spring; 62 g ai/ha)
0: Plant response rating, Pigweed, Palmer (pigweed, palmer; [4]) | Plant response rating, Velvetleaf (velvetleaf; [4])
40: Pigweed plant response rating (pigweed; Postemergence, 31 g ai/ha) | Pigweed plant response rating (pigweed; postemergence, 62 g ai/ha)
95: Plant response rating, Wheat, Winter (wheat, winter; 125 g ai/ha) | Field Poppy plant response rating (field poppy; Postemergence, 250 g ai/ha) | Chickweed plant response rating (chickweed; Postemergence, 250 g ai/ha)
25: Ryegrass, Italian plant response rating (ryegrass, Italian; Postemergence, 125 g ai/ha)
